Data reported in paper PMC7937321 (Genes and Environment, 2021).
Where two headings read alike, the source gives them in different places.

Key:
[1] = system: L5178Y mouse lymphoma cells; conditions: cited from earlier work; for MLA (TK gene locus), With S9 / MLA (TK gene locus), Without S9: [46]-[53], Table 3
TK6 cells [2] = conditions: human
[3] = system: human lymphoblastoid TK6 cells, thymidine kinase gene
Description: (§1) In principle, this collaborative study conducted the treatment of test substances, the dose finding, and the main test of TK6 assays, according to the OECD Guideline TG490 [17]. […] Briefly, test substances were dissolved in an appropriate solvent (DMSO or ethanol) and then serially diluted to prepare final concentrations. […] The 4 h and 24 h treatments were conducted by shaking and static exposures, respectively. After treatment with test substances, cells were centrifuged (1000 rpm, 5 min), supernatants were removed, and cells were washed with a serum-free medium or Hank’s Balanced Salt Solution. After centrifugation (1000 rpm, 5 min) to remove the supernatant, cells (2 × 10^7 cells) were dispersed in an RPMI medium containing 10% serum, and cell concentration was measured. Treated cells were cultured at 37 °C with 5% CO2 condition and used for TK6 assays. At that time, to calculate the cloning efficiency (CE) (Eq. 1), the cells were cultured in a 96-well microplate at a concentration of about 1.6 cells/well for 2 weeks.
(§2) The TK6 assay is conducted between 20 and 10% RS0 as a maximum dose if cytotoxicity is observed. If no precipitate or limiting cytotoxicity was observed, the maximum dose was the lowest concentration among 10 mM, 2 mg/mL, or 2 μL/mL of the test substance. When the main TK6 assay was difficult to conduct under the condition of RS0 values from 20 to 10%, the test was conducted between 20 and 10% relative total growth (RTG), described later, as a maximum dose.
(§3) On the third day of culture, CE3 plates for determining plating efficiency and mutant frequency (MF) plates for mutation detection were prepared. CE3 plates were seeded in 96-well microplates at a concentration of about 1.6 cells/well. The MF plates were seeded in 96-well microplates at 40,000 cells/well in the presence of 3 μg/mL of trifluorothymidine (Sigma Aldrich).
(§4) Mutant colonies in MF plates were calculated using Eq. 7 using the Poisson distribution. EW was the number of wells without colonies, and TW was the total number of wells. N was the average number of cells per well (N = 40,000 in this study). The data were statistically analyzed by Omori’s method, a modified Dunnett’s procedure for identifying clear negatives, a Simpson–Margolin procedure for detecting downturn data, and a trend test to evaluate the dose dependency [42, 43]. The acceptability criterion for the test was that the MF value of the positive control group of each laboratory was increased with statistical significance compared with that of the concurrent negative control group.

rodent [4] = conditions: cited from earlier work; for Carcinogenicity Studies: rodent, ref [20]-[41], Table 2
[5] = system: TA1538, TA100, TA98, TA97, TA1535; conditions: cited from earlier work; for Bacterial reverse mutation assay, With S9 / Bacterial reverse mutation assay, Without S9: ref [18]-[40], Table 2
rodent [6] = conditions: chromosomal Aberration test, micronucleus test, transgenic rodent gene mutation assay; ref [48], [58]–[63]; cited from earlier work
[7] = system: human lymphoblastoid TK6 cells, thymidine kinase gene; assay: TK gene mutation assay (TK6 assay, OECD TG490); conditions: for TK6 assay overall judgment: all treatments; for TK mutation assay, With S9 / TK mutation assay, Without S9: short-term 4 h; for TK mutation assay, With S9: with rat liver S9
Description: as §1, §2, §3, §4

TK6 cells [8] = assay: Cytotoxicity in the TK6 assay (CE, RS, RSG, RTG); conditions: for CE0 / RS0 / Adjusted CE0 / Adjusted CE0(%) / CE0 (%) / RS0 (%): Day 0
[9] = Short treatment, +S9 mix, 24.1 μg/mL
[10] = Short treatment, +S9 mix, 48.1 μg/mL
[11] = Short treatment, +S9 mix, 96 μg/mL
[12] = Short treatment, +S9 mix, 770 μg/mL
[13] = Short treatment, -S9 mix, 24.10 μg/mL
[14] = Short treatment, -S9 mix, 48.10 μg/mL
[15] = Short treatment, -S9 mix, 96.30 μg/mL
[16] = dose 6.02 μg/mL, 24h treatment, -S9 mix
[17] = dose 24.10 μg/mL, 24h treatment, -S9 mix
[18] = dose 24.1 μg/mL, short treatment, +S9 mix
[19] = dose 48.1 μg/mL, 24h treatment, -S9 mix
[20] = dose 48.1 μg/mL, short treatment, +S9 mix
[21] = dose 96 μg/mL, short treatment, +S9 mix
[22] = dose 96.3 μg/mL, 24h treatment, -S9 mix
[23] = Long-term treatment without metabolic activation
[24] = Short-term treatment with metabolic activation
[25] = Short-term treatment without metabolic activation

Cc1cc(N)ccc1N [2,5-Diaminotoluene]
MLA result ([1]; NTP database, ref [54]): positive | MLA result ([1]; reported by SCCS, ref [46]): negative | MLA (TK gene locus), With S9 ([1]; ref [27]): Inconclusive^c | MLA (TK gene locus), Without S9 ([1]; ref [27]): Inconclusive^c | CE3 (cell viability on Day 3) (TK6 cells [2]): 92.1% | cytotoxicity (TK6 cells [2]): About 80% | TK6 assay overall judgment [3]: negative | TK mutation assay, Long term [3]: Neg | TK mutation assay, With S9 [3]: Neg | TK mutation assay, Without S9 [3]: Neg | Carcinogenicity Studies (rodent [4]): Neg

CC(=O)Nc1ccc(C(=O)CCl)cc1 [4-(Chloroacetyl)-acetanilide, 4-(Chloroacetyl)acetanilide]
The Highest Specific Activity and the Strain ([5]; TA1538 with S9, ref [18], [19]): 600 revertants/mg in TA1538 with S9 | Bacterial reverse mutation assay, With S9 [5]: Pos | Bacterial reverse mutation assay, Without S9 [5]: Neg | TK6 assay overall judgment [3]: positive | TK mutation assay, Long term [3]: Pos | TK mutation assay, With S9 [3]: Neg | TK mutation assay, Without S9 [3]: Pos | linear trend test of MF [3]: no statistically significant linear trends | in vivo genotoxicity tests (rodent [6]): negative | Carcinogenicity Studies (rodent [4]): Neg

O=[N+]([O-])c1cccc2ccccc12 [1-Nitronaphthalene]
The Highest Specific Activity and the Strain ([5]; TA100 with S9, ref Table 2): 12,500 revertants/mg | The Highest Specific Activity and the Strain ([5]; TA100 without S9, ref Table 2): 14,700 revertants/mg | specific activity values obtained from Ames test ([5]; ref Table 2): exceeding 10,000 revertants per milligram | Bacterial reverse mutation assay, With S9 [5]: Pos | Bacterial reverse mutation assay, Without S9 [5]: Pos | in vivo genotoxicity tests (rodent [6]): negative | Carcinogenicity Studies (rodent [4]): Neg | TK6 assay result (mutant frequency increase, judgment) ([7]; 4h treatment (+S9)): significant increase in MF | TK6 assay result (mutant frequency increase, judgment) ([7]; 4h treatment (-S9)): significant increase in MF | TK6 assay overall judgment [7]: positive | TK mutation assay, With S9 [7]: Pos | TK mutation assay, Without S9 ([7]; without S9): Pos

O=[N+]([O-])c1cc(N(CCO)CCO)ccc1NCCO [HC Blue No.2]
MLA (4 h) ([1]; presence of S9, ref [27], [29], [68]): positive | MLA (−S9) ([1]; substance with high purity, −S9, ref [27]): positive | MLA (TK gene locus), With S9 ([1]; ref [27]): Pos | MLA (TK gene locus), Without S9 ([1]; ref [27]): Pos | The Highest Specific Activity and the Strain ([5]; TA98 with S9, ref Table 2): 153.6 revertants/mg in TA98 with S9 | Bacterial reverse mutation assay, With S9 [5]: Pos | Bacterial reverse mutation assay, Without S9 [5]: Pos | TK mutation assay, Long term [3]: Pos | TK mutation assay, With S9 [3]: Neg | TK mutation assay, Without S9 [3]: Neg | Trend test, test statistic [3]: 2.719 | carcinogenicity classification (rodent [4]; ref [84]): non-carcinogenic | Carcinogenicity Studies (rodent [4]): Neg

Nc1ccc([N+](=O)[O-])cc1N [4-Nitro-o-phenylenediamine]
MLA (TK gene locus), With S9 ([1]; ref [27]): Pos | MLA (TK gene locus), Without S9 ([1]; ref [27]): Pos | CE0 (TK6 cells [8]; [9]): 81.6% | RS0 (TK6 cells [8]; [9]): 97.0% | CE3 (TK6 cells [8]; Short treatment, +S9 mix, 24.1 μg/mL, Day 3): 92.1% | Daily cell growth Day 1×2×3 (TK6 cells [8]; [10]): 13.43 | RSG (TK6 cells [8]; [10]): 0.703 | Adjusted CE0 (TK6 cells [8]; [10]): 81.2% | CE0 (TK6 cells [8]; [10]): 84.1% | RS0 (TK6 cells [8]; [10]): 101.5% | CE3 (TK6 cells [8]; Short treatment, +S9 mix, 48.1 μg/mL, Day 3): 84.1% | Daily cell growth Day 1×2×3 (TK6 cells [8]; [11]): 13.64 | RSG (TK6 cells [8]; [11]): 0.714 | Adjusted CE0 (TK6 cells [8]; [11]): 62.7% | CE0 (TK6 cells [8]; [11]): 66.7% | RS0 (TK6 cells [8]; [11]): 78.3% | CE3 (TK6 cells [8]; Short treatment, +S9 mix, 96 μg/mL, Day 3): 72.7% | Daily cell growth Day 1×2×3 (TK6 cells [8]; [12]): 1.65 | RSG (TK6 cells [8]; [12]): 0.086 | Adjusted CE0 (TK6 cells [8]; [12]): 29.1% | CE0 (TK6 cells [8]; [12]): 42.0% | RS0 (TK6 cells [8]; [12]): 36.3% | CE3 (TK6 cells [8]; [13]): 1.160 | RS (TK6 cells [8]; [13]): 79.4 | CE0 (TK6 cells [8]; [13]): 74.8% | RS0 (TK6 cells [8]; [13]): 79.4% | CE3 (TK6 cells [8]; Short treatment, -S9 mix, 24.10 μg/mL, Day 3): 116.0% | CE3 (TK6 cells [8]; [14]): 0.866 | Daily cell growth Day 1×2×3 (TK6 cells [8]; [14]): 13.83 | RS (TK6 cells [8]; [14]): 65.5 | RSG (TK6 cells [8]; [14]): 0.667 | Adjusted CE0 (TK6 cells [8]; [14]): 56.8% | CE0 (TK6 cells [8]; [14]): 61.3% | RS0 (TK6 cells [8]; [14]): 65.5% | CE3 (TK6 cells [8]; Short treatment, -S9 mix, 48.10 μg/mL, Day 3): 86.6% | CE3 (TK6 cells [8]; [15]): 0.950 | Daily cell growth Day 1×2×3 (TK6 cells [8]; [15]): 13.07 | RS (TK6 cells [8]; [15]): 64.6 | RSG (TK6 cells [8]; [15]): 0.630 | Adjusted CE0 (TK6 cells [8]; [15]): 56.1% | CE0 (TK6 cells [8]; [15]): 63.1% | RS0 (TK6 cells [8]; [15]): 64.6% | CE3 (TK6 cells [8]; Short treatment, -S9 mix, 96.30 μg/mL, Day 3): 95.0% | CE3 (TK6 cells [8]; [16]): 0.866 | Daily cell growth Day 1×2×3 (TK6 cells [8]; [16]): 17.46 | RSG (TK6 cells [8]; [16]): 0.993 | Adjusted CE0(%) (TK6 cells [8]; [16]): 178.3% | CE0 (%) (TK6 cells [8]; [16]): 81.6% | RS0 (%) (TK6 cells [8]; [16]): 79.6% | CE3 (%) (TK6 cells [8]; dose 6.02 μg/mL, 24h treatment, -S9 mix, Day 3): 86.6% | CE3 (TK6 cells [8]; [17]): 1.012 | CE0 (%) (TK6 cells [8]; [17]): 95.0% | RS0 (%) (TK6 cells [8]; [17]): 73.2% | CE3 (%) (TK6 cells [8]; dose 24.10 μg/mL, 24h treatment, -S9 mix, Day 3): 101.2% | CE3 (TK6 cells [8]; [18]): 0.921 | RS (TK6 cells [8]; [18]): 97.0 | CE3 (TK6 cells [8]; [19]): 0.950 | Daily cell growth Day 1×2×3 (TK6 cells [8]; [19]): 11.59 | RSG (TK6 cells [8]; [19]): 0.659 | Adjusted CE0(%) (TK6 cells [8]; [19]): 99.3% | CE0 (%) (TK6 cells [8]; [19]): 74.8% | RS0 (%) (TK6 cells [8]; [19]): 44.3% | CE3 (%) (TK6 cells [8]; dose 48.1 μg/mL, 24h treatment, -S9 mix, Day 3): 95.0% | CE3 (TK6 cells [8]; [20]): 0.841 | RS (TK6 cells [8]; [20]): 101.5 | CE3 (TK6 cells [8]; [21]): 0.727 | RS (TK6 cells [8]; [21]): 78.3 | CE3 (TK6 cells [8]; [22]): 0.866 | Daily cell growth Day 1×2×3 (TK6 cells [8]; [22]): 9.04 | RSG (TK6 cells [8]; [22]): 0.514 | Adjusted CE0(%) (TK6 cells [8]; [22]): 55.5% | CE0 (%) (TK6 cells [8]; [22]): 59.6% | RS0 (%) (TK6 cells [8]; [22]): 24.8% | CE3 (%) (TK6 cells [8]; dose 96.3 μg/mL, 24h treatment, -S9 mix, Day 3): 86.6% | RS (TK6 cells [8]; dose 770 μg/mL, short treatment, +S9 mix): 36.3 | The Highest Specific Activity and the Strain ([5]; TA100 without S9, ref Table 2): 41,400 revertants/mg in TA100 without S9 | specific activity values obtained from Ames test ([5]; ref Table 2): exceeding 10,000 revertants per milligram | Bacterial reverse mutation assay, With S9 [5]: Pos | Bacterial reverse mutation assay, Without S9 [5]: Pos | Carcinogenicity Studies (rodent [4]): Neg | TK6 assay result (mutant frequency increase, judgment) ([7]; 4h treatment (-S9)): increased significantly | TK mutation assay, Long term ([7]; 24 h, without S9): Pos | TK6 assay result (mutant frequency increase, judgment) ([7]; 24h treatment (-S9)): increased significantly | Dunnett type test, test statistic [7, 23]: 3.866 | Trend test, test statistic [7, 23]: 2.800 | %SG [7, 13]: 54.1% | MF [7, 13]: 14.5 | %SG [7, 14]: 55.8% | MF [7, 14]: 17.4 | Mut. freq. N-MF [7, 14]: 7.7 ×10-6 | Mut. freq. S-MF [7, 14]: 9.7 ×10-6 | Mut. freq. T-MF [7, 14]: 17.4 ×10-6 | %SG [7, 15]: 62.6% | MF [7, 15]: 16.9 | Mut. freq. N-MF [7, 15]: 6.3 ×10-6 | Mut. freq. S-MF [7, 15]: 10.6 ×10-6 | Mut. freq. T-MF [7, 15]: 16.9 ×10-6 | Dunnett type test, test statistic [7, 24]: 3.458 | Trend test, test statistic [7, 24]: 1.593 | Dunnett type test, test statistic [7, 25]: 2.435 | Trend test, test statistic [7, 25]: 2.615 | TK6 assay overall judgment [7]: positive | %SG [7, 16]: 39.7% | Mut. freq. (×10-6) N-MF [7, 16]: 11.7 ×10-6 | Mut. freq. (×10-6) S-MF [7, 16]: 7.7 ×10-6 | Mut. freq. (×10-6) T-MF [7, 16]: 19.4 ×10-6 | %SG [7, 17]: 59.9% | %SG [7, 18]: 62.7% | %SG [7, 19]: 78.5% | Mut. freq. (×10-6) N-MF [7, 19]: 3.0 ×10-6 | Mut. freq. (×10-6) S-MF [7, 19]: 11.1 ×10-6 | Mut. freq. (×10-6) T-MF [7, 19]: 14.2 ×10-6 | %SG [7, 20]: 65.0% | Mut. freq. (×10-6) N-MF [7, 20]: 7.5 ×10-6 | Mut. freq. (×10-6) S-MF [7, 20]: 14.0 ×10-6 | Mut. freq. (×10-6) T-MF [7, 20]: 21.6 ×10-6 | %SG [7, 21]: 70.4% | Mut. freq. (×10-6) N-MF [7, 21]: 5.2 ×10-6 | Mut. freq. (×10-6) S-MF [7, 21]: 12.4 ×10-6 | Mut. freq. (×10-6) T-MF [7, 21]: 17.6 ×10-6 | %SG [7, 22]: 76.1% | Mut. freq. (×10-6) N-MF [7, 22]: 5.6 ×10-6 | Mut. freq. (×10-6) S-MF [7, 22]: 17.9 ×10-6 | Mut. freq. (×10-6) T-MF [7, 22]: 23.5 ×10-6 | TK mutation assay, With S9 [7]: Neg | TK mutation assay, Without S9 ([7]; without S9): Pos
